In the assay the target is T1, recombinant human SAE enzyme (Homo sapiens, UniProt Q9UBT2).
T1 sequence (Q9UBT2 1-640): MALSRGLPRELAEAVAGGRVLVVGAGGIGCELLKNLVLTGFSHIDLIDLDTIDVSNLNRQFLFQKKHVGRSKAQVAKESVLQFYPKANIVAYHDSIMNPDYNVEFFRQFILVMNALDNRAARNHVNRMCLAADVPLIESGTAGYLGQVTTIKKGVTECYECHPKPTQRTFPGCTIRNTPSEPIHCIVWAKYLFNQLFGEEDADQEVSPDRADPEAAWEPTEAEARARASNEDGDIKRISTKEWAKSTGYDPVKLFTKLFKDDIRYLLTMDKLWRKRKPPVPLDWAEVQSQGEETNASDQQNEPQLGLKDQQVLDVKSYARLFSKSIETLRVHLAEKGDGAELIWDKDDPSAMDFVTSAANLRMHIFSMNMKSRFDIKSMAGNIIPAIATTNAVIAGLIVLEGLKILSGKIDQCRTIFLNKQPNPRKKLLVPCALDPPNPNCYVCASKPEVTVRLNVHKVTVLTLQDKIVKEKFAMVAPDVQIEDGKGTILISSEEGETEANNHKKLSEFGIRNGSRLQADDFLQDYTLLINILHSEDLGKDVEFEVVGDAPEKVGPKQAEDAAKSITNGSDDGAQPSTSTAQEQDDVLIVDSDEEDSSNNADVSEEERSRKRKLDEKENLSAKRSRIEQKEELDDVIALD
T1 sequence (Q9UBE0 1-346 partner): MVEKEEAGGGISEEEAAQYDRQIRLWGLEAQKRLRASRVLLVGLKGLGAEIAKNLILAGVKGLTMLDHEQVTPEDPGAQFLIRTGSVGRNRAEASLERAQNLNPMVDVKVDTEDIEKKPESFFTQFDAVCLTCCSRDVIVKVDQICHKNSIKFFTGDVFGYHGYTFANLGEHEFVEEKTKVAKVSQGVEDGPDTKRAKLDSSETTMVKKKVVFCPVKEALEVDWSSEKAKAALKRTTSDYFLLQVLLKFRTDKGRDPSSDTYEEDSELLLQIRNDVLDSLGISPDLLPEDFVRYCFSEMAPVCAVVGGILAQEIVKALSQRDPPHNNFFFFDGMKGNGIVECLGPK
Kind of assay: SAE HTRF Enzyme Assay. Type of assay: biochemical. To be noted: for IC50: class symbols A-C; for inhibition at 0.111 µM: read-out: Percent Inhibition. In outline:
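HTRF signal from Eu-anti-Flag/APC-anti-GST pairs reports Sumo-Flag loaded onto Ubc9-GST by 0.11 nM SAE. Reaction: 0.5 μM ATP, 0.125 μM Sumo-Flag, 0.01 μM Ubc9-GST, 5 mM MgCl2, pH 7.5, 105 min, 24° C. Single-concentration % inhibition or IC50 reported.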

The mark [1] stands for this setting: compound concentration 0.111 μM.

SMILES strings stand for the structures.

Consider `NS(=O)(=O)OC[C@H]1C[C@@H](Nc2ncncc2C(=O)c2ccn(Cc3cccnc3)n2)[C@H](O)[C@@H]1O` [Compound I-247, {(1R,2R,3S,4R)-2,3-dihydroxy-4-[(5-{[1-(pyridin-3-ylmethyl)-1H-pyrazol-3-yl]carbonyl}pyrimidin-4-yl)amino]cyclopentyl}methyl sulfamate], for which the IC50 (usually the midpoint of a concentration-inhibition curve) was less than 10 nM. The inhibition – broadly, the drop in the measured response relative to a control, in per cent – at 0.111 µM under setting [1] came to 90%.
In the case of `Cc1cccc(Cn2ccc(C(=O)c3cncnc3N[C@@H]3C[C@H](COS(N)(=O)=O)[C@@H](O)C3)n2)c1` [Compound I-128, {(1R,2S,4R)-2-hydroxy-4-[(5-{[1-(3-methylbenzyl)-1H-pyrazol-3-yl]carbonyl}pyrimidin-4-yl)amino]cyclopentyl}methyl sulfamate], the IC50 is less than 10 nM. Besides, the inhibition at 0.111 µM under setting [1] amounted to 98%.
`NS(=O)(=O)OC[C@H]1C[C@@H](Nc2ncncc2C(=O)c2ccn(Cc3cc(F)cc(C(F)(F)F)c3)n2)[C@H](O)[C@@H]1O` [Compound I-258, [(1R,2R,3S,4R)-4-{[5-({1-[3-fluoro-5-(trifluoromethyl)benzyl]-1H-pyrazol-3-yl}carbonyl)pyrimidin-4-yl]amino}-2,3-dihydroxycyclopentyl]methyl sulfamate]: the IC50 is less than 10 nM. The inhibition at 0.111 µM under setting [1] came out at 97%.
For the compound `NS(=O)(=O)OC[C@H]1C[C@@H](Nc2ncncc2C(=O)c2ccn(Cc3cncc(Br)c3)c2)C[C@@H]1O` [Compound I-299, [(1R,2S,4R)-4-{[5-({1-[(5-Bromopyridin-3-yl)methyl]-1H-pyrrol-3-yl}carbonyl)pyrimidin-4-yl]amino}-2-hydroxycyclopentyl]methyl sulfamate], the IC50 was less than 10 nM. For the same compound, the inhibition at 0.111 µM under setting [1] worked out at 99%.
For `COC(C)c1cc(C(=O)c2cncnc2N[C@@H]2C[C@H](COS(N)(=O)=O)[C@@H](O)C2)nn1Cc1cccc(Br)c1` (single isomer, unassigned) [Compound I-369a, [(1R,2S,4R)-4-{[5-({1-(3-bromobenzyl)-5-[(1S)-1-methoxyethyl]-1H-pyrazol-3-yl}carbonyl)pyrimidin-4-yl]amino}-2-hydroxycyclopentyl]methyl sulfamate or [(1R,2S,4R)-4-{[5-({1-(3-bromobenzyl)-5-[(1R)-1-methoxyethyl]-1H-pyrazol-3-yl}carbonyl)pyrimidin-4-yl]amino}-2-hydroxycyclopentyl]methyl sulfamate], the IC50 is less than 10 nM. Besides, the “Percent Inhibition” value under setting [1] is reported as 98%.
On to `NS(=O)(=O)OC[C@H]1C[C@@H](Nc2ncncc2C(=O)c2ccn(CC3CCOC3)n2)C[C@@H]1O` (mixture of isomers) [Compound I-332, [(1R,2S,4R)-2-hydroxy-4-{[5-({1-[(3R)-tetrahydrofuran-3-ylmethyl]-1H-pyrazol-3-yl}carbonyl)pyrimidin-4-yl]amino}cyclopentyl]methyl sulfamate and [(1R,2S,4R)-2-hydroxy-4-{[5-({1-[(3S)-tetrahydrofuran-3-ylmethyl]-1H-pyrazol-3-yl}carbonyl)pyrimidin-4-yl]amino}cyclopentyl]methyl sulfamate], for which the IC50 fell in the range of 100 to 1000 nM. Besides, the inhibition at 0.111 µM under setting [1] was 16%.
In the case of `NS(=O)(=O)OC[C@H]1C[C@@H](Nc2ncncc2C(=O)c2ccn(Cc3cccc(C(F)(F)F)n3)n2)C[C@@H]1O` [Compound I-3, [(1R,2S,4R)-2-hydroxy-4-({5-[(1-{[6-(trifluoromethyl)pyridin-2-yl]methyl}-1H-pyrazol-3-yl)carbonyl]pyrimidin-4-yl}amino)cyclopentyl]methyl sulfamate], the half-inhibitory concentration (IC50) is less than 10 nM. Under setting [1], the inhibition at 0.111 µM came out at 98%.
On to `NS(=O)(=O)OC[C@H]1C[C@@H](Nc2ncncc2C(=O)c2ccn(CC3=CCCOC3)n2)C[C@@H]1O` [Compound I-145, {(1R,2S,4R)-4-[(5-{[1-(5,6-dihydro-2H-pyran-3-ylmethyl)-1H-pyrazol-3-yl]carbonyl}pyrimidin-4-yl)amino]-2-hydroxycyclopentyl}methyl sulfamate], for which the IC50 lay within 10 to 100 nM. Also, under setting [1], the inhibition at 0.111 µM worked out at 65%.
In the case of `NS(=O)(=O)OC[C@H]1C[C@@H](Nc2ncncc2C(=O)c2ccn(Cc3ccc(F)c(Cl)c3)c2)[C@@H](F)[C@@H]1O` [Compound I-141, {(1R,2R,3R,4R)-4-[(5-{[1-(3-chloro-4-fluorobenzyl)-1H-pyrrol-3-yl]carbonyl}pyrimidin-4-yl)amino]-3-fluoro-2-hydroxycyclopentyl}methy1 sulfamate], the IC50 is less than 10 nM. Under setting [1], the inhibition at 0.111 µM stood at 99%.
Consider `NS(=O)(=O)OC[C@H]1C[C@@H](Nc2ncncc2C(=O)c2ccn(Cc3cc(F)cc(F)c3)n2)C[C@@H]1O` [Compound I-260, {(1R,2S,4R)-4-[(5-{[1-(3,5-difluorobenzyl)-1H-pyrazol-3-yl]carbonyl}pyrimidin-4-yl)amino]-2-hydroxycyclopentyl}methyl sulfamate], for which the IC50 was less than 10 nM. For the same compound, the inhibition at 0.111 µM under setting [1] stood at 91%.
On the same counts, the results for `NS(=O)(=O)OC[C@H]1C[C@@H](Nc2ncncc2C(=O)c2ccn(Cc3ccc(Cl)o3)n2)C[C@@H]1O` [Compound I-180, [(1R,2S,4R)-4-{[5-({1-[(5-chloro-2-furyl)methyl]-1H-pyrazol-3-yl}carbonyl)pyrimidin-4-yl]amino}-2-hydroxycyclopentyl]methyl sulfamate] are less than 10 nM and 99%.
`NS(=O)(=O)OC[C@H]1C[C@@H](Nc2ncncc2C(=O)c2ccn(Cc3cccc(C4(O)COC4)n3)n2)C[C@@H]1O` [Compound I-120, [(1R,2S,4R)-2-hydroxy-4-({5-[(1-{[6-(3-hydroxyoxetan-3-yl)pyridin-2-yl]methyl) 1H pyrazol-3-yl)carbonyl]pyrimidin-4-yl}amino)cyclopentyl]methyl sulfamate]: the IC50 fell in the range of 100 to 1000 nM. The inhibition at 0.111 µM under setting [1] worked out at 47%.
On the same counts, the results for `NS(=O)(=O)OC[C@H]1C[C@@H](Nc2ncncc2C(=O)c2cc(CO)n(Cc3ccccc3)n2)C[C@@H]1O` [Compound I-335, {(1R,2S,4R)-4-[(5-{[1-Benzyl-5-(hydroxymethyl)-1H-pyrazol-3-yl]carbonyl}pyrimidin-4-yl)amino]-2-hydroxycyclopentyl}methyl sulfamate] are less than 10 nM and 97%.
For `NS(=O)(=O)OC[C@H]1C[C@@H](Nc2ncncc2C(=O)c2ccn(Cc3cccc(Br)c3F)n2)C[C@@H]1O` [Compound I-282, {(1R,2S,4R)-4-[(5-{[1-(3-bromo-2-fluorobenzyl)-1H-pyrazol-3-yl]carbonyl}pyrimidin-4-yl)amino]-2-hydroxycyclopentyl}methyl sulfamate], the IC50 was less than 10 nM. Also, the inhibition at 0.111 µM under setting [1] turned out to be 100%.
`NS(=O)(=O)OC[C@H]1C[C@@H](Nc2ccncc2C(=O)c2ccn(Cc3ccc(F)c(Cl)c3)n2)C[C@@H]1O` [Compound I-97, {(1R,2S,4R)-4-[(3-{[1-(3-Chloro-4-fluorobenzyl)-1H-pyrazol-3-yl]carbonyl}pyridin-4-yl)amino]-2-hydroxycyclopentyl}methyl sulfamate]: the IC50 was less than 10 nM. Under setting [1], the inhibition at 0.111 µM is 96%.
The matching figures for `NS(=O)(=O)OC[C@H]1C[C@@H](Nc2ncncc2C(=O)c2ccn(Cc3cccc(C4(O)COC4)c3)n2)C[C@@H]1O` [Compound I-270, [(1R,2S,4R)-2-hydroxy-4-{[5-{{1-[3-(3-hydroxyoxetan-3-yl)benzyl]-1H-pyrazol-3-yl}carbonyl)pyrimidin-4-yl]amino}cyclopentyl]methyl sulfamate]: 10 to 100 nM and 87%.

These data come from patent US9695154B2, “Heteroaryl inhibitors of sumo activating enzyme” (MILLENNIUM PHARMACEUTICALS, INC., priority 2013, dated 2017).
